Details: pH 3

For `CN1CCCC1c1cccnc1.O=C(O)C(O)C(O)C(=O)O` (stereo not shown) [Nicotine Bitartrate, nicotine bitartrate], the “loss of nicotine into the polymeric dosage form materials, comparison of salts” value was “better”.

Reference: US8256433B2 (priority 1999, dated 2012)
